Structures are written as SMILES. Structures can show the parent of a compound that is named as a salt.

Data on 33 molecules can be found in patent US20250206724A1, “SUBSTITUTED 3-AMINO INDAZOLE DERIVATIVES AS KINASE INHIBITORS” (NERVIANO MEDICAL SCIENCES S.R.L., priority 2022, published 2025).
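Note: compound preincubated 30 min with CDK11A-p58, then probe added and polarization (mP) read 15 min later, 0% displacement is probe plus enzyme, 100% is probe alone.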

In this assay the target is T1, CDK11A (Homo sapiens, UniProt Q9UQ88).
T1 sequence (Q9UQ88 346-783): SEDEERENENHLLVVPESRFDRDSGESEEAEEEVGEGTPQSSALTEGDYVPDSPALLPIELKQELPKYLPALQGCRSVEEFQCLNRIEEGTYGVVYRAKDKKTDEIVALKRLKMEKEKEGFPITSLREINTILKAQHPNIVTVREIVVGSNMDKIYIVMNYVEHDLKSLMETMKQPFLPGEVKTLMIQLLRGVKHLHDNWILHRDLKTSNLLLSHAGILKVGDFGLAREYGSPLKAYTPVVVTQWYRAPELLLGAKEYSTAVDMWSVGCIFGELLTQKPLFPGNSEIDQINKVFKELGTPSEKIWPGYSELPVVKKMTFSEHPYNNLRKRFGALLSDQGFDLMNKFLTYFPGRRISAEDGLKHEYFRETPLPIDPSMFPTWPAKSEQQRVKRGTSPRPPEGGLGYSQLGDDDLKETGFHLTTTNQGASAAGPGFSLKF
Particulars: displacement of SNS-032-Atto590 probe (0.002 μM) from CDK11A-p58 (0.032 uM), fluorescence polarization. (In general: In fluorescence polarisation assays a small probe gives low polarisation when free and higher when bound to something large.)
In turn, `CCCCN1CCC(C(=O)Nc2n[nH]c3ccc(-c4c(F)cccc4Cl)cc23)CC1` [cpd 65, 1-Butyl-N-[5-(2-chloro-6-fluorophenyl)-1H-indazol-3-yl]piperidine-4-carboxamide hydrochloride] came in with a DC50 of 110 nM.
Turning to `O=C(Nc1n[nH]c2ccc(-c3c(Cl)cccc3Cl)cc12)C1CCN(C2CC2)CC1` [compound 158, 1-Cyclopropyl-N-[5-(2,6-dichlorophenyl)-1H-indazol-3-yl]piperidine-4-carboxamide hydrochloride], the DC50 came out at 695 nM.
Next, `CN1CCC(C(=O)Nc2n[nH]c3ccc(-c4c(F)cc(O)cc4F)cc23)CC1` [compound 138, N-[5-(2,6-Difluoro-4-hydroxyphenyl)-1H-indazol-3-yl]-1-methylpiperidine-4-carboxamide trifluoroacetate]: 376 nM.
The molecule `O=C(Nc1n[nH]c2ccc(-c3ccc(C(F)(F)F)cc3Cl)cc12)[C@@H]1CCCNC1` [cpd 44, (3R)-N-{5-[2-Chloro-4-(trifluoromethyl)phenyl]-1H-indazol-3-yl}piperidine-3-carboxamide hydrochloride] yielded a DC50 of 156 nM.
Next, `CC(C)(C)COC(=O)n1nc(NC(=O)[C@@H]2CCC(C)(C)NC2)c2cc(-c3cc(C#N)ccc3Cl)ccc21` (single isomer, unassigned) [cpd 224, 2,2-Dimethylpropyl 5-(2-chloro-5-cyanophenyl)-3-({[(3+)-6,6-dimethylpiperidin-3-yl]carbonyl}amino)-1H-indazole-1-carboxylate hydrochloride]: 528 nM; `N#Cc1ccc(Cl)c(-c2ccc3[nH]nc(NC(=O)C4CN5CCC4CC5)c3c2)c1` (stereo not drawn) [compound 188, N-[5-(2-Chloro-5-cyanophenyl)-1H-indazol-3-yl]-1-azabicyclo[2.2.2]octane-3-carboxamide hydrochloride]: 275 nM.
In the case of `CN1CCC(C(=O)Nc2n[nH]c3ccc(-c4ccc(N)cc4)cc23)CC1` [cpd 90, N-[5-(4-Aminophenyl)-1H-indazol-3-yl]-1-methylpiperidine-4-carboxamide dihydrochloride] it was 592 nM; in that of `CN1CCC(C(=O)Nc2n[nH]c3ccc(-c4cc(CO)ccc4Cl)cc23)CC1` [cpd 77, N-{5-[2-Chloro-5-(hydroxymethyl)phenyl]-1H-indazol-3-yl}-1-methylpiperidine-4-carboxamide p-toluensulfonate], 446 nM.
In the case of `CN1CCC(C(=O)Nc2n[nH]c3ccc(-c4c(Cl)cccc4Cl)cc23)CC1` [cpd 68, N-[5-(2,6-Dichlorophenyl)-1H-indazol-3-yl]-1-methylpiperidine-4-carboxamide], the DC50 was determined as 85 nM.
In turn, `CN1CCC(C(=O)Nc2n[nH]c3ccc(-c4c(Cl)cc(Cl)cc4Cl)cc23)CC1` [cpd 108, 1-Methyl-N-[5-(2,4,6-trichlorophenyl)-1H-indazol-3-yl]piperidine-4-carboxamide hydrochloride] yielded a DC50 of 150 nM.
For `Cc1ccc(-c2ccc3[nH]nc(NC(=O)[C@@H]4CCCNC4)c3c2)c(Cl)c1` [cpd 8, (3R)-N-[5-(2-Chloro-4-methylphenyl)-1H-indazol-3-yl]piperidine-3-carboxamide hydrochloride], the DC50 was determined as 125 nM.
In the case of `CNC(=O)c1ccc(Cl)c(-c2ccc3[nH]nc(NC(=O)[C@@H]4CCNC4)c3c2)c1` [cpd 39, (3R)-N-{5-[2-Chloro-5-(methylcarbamoyl)phenyl]-1H-indazol-3-yl}pyrrolidine-3-carboxamide hydrochloride] it was 44 nM; in that of `Cc1ccc(-c2ccc3[nH]nc(NC(=O)C4CCN(C)CC4)c3c2)c(F)c1F` [compound 132, N-[5-(2,3-Difluoro-4-methylphenyl)-1H-indazol-3-yl]-1-methylpiperidine-4-carboxamide hydrochloride], 409 nM.
`O=C(Nc1n[nH]c2ccc(-c3c(Cl)cccc3Cl)cc12)[C@H]1CCNC1` [compound 168, (3S)-N-[5-(2,6-Dichlorophenyl)-1H-indazol-3-yl]pyrrolidine-3-carboxamide hydrochloride] gave a DC50 of 98 nM.
In the case of `CN1CCC(C(=O)Nc2n[nH]c3ccc(-c4cc([N+](=O)[O-])ccc4Cl)cc23)CC1` [compound 137, N-[5-(2-Chloro-5-nitrophenyl)-1H-indazol-3-yl]-1-methylpiperidine-4-carboxamide trifluoroacetate] it was 70 nM; in that of `Cc1nc(-c2ccc(Cl)c(-c3ccc4[nH]nc(NC(=O)[C@@H]5CCCNC5)c4c3)c2)no1` [cpd 60, (3R)-N-{5-[2-Chloro-5-(5-methyl-1,2,4-oxadiazol-3-yl)phenyl]-1H-indazol-3-yl}piperidine-3-carboxamide dihydrochloride], 163 nM; in that of `CN1CCC(C(=O)Nc2n[nH]c3ccc(-c4ccc(Cl)cc4Cl)cc23)CC1` [cpd 106, N-[5-(2,4-Dichlorophenyl)-1H-indazol-3-yl]-1-methylpiperidine-4-carboxamide hydrochloride], 259 nM.
In turn, `Cc1ccc(Cl)c(-c2ccc3[nH]nc(NC(=O)C4CCN(C)CC4)c3c2)c1F` [cpd 72, N-[5-(6-Chloro-2-fluoro-3-methylphenyl)-1H-indazol-3-yl]-1-methylpiperidine-4-carboxamide hydrochloride] had a DC50 of 166 nM.
In the case of `CCc1ccccc1-c1ccc2[nH]nc(NC(=O)C3CCN(C)CC3)c2c1` [cpd 88, N-[5-(2-Ethylphenyl)-1H-indazol-3-yl]-1-methylpiperidine-4-carboxamide hydrochloride] it was 822 nM; in that of `N#Cc1ccc(Cl)c(-c2ccc3[nH]nc(NC(=O)C4CC(NC5CCC5)C4)c3c2)c1` (stereo not drawn) [compound 153, N-[5-(2-Chloro-5-cyanophenyl)-1H-indazol-3-yl]-3-(cyclobutylamino)cyclobutanecarboxamide hydrochloride], 41 nM; in that of `N#Cc1ccc(Cl)c(-c2ccc3[nH]nc(NC(=O)[C@H]4CCCNC4)c3c2)c1` [compound 181, (3S)-N-[5-(2-Chloro-5-cyanophenyl)-1H-indazol-3-yl]piperidine-3-carboxamide hydrochloride], 64 nM.
`CN1CCC(C(=O)Nc2n[nH]c3ccc(-c4cccc(F)c4)cc23)CC1` [cpd 101, N-[5-(3-Fluorophenyl)-1H-indazol-3-yl]-1-methylpiperidine-4-carboxamide hydrochloride] displayed a DC50 of 692 nM.
`CN1CCC(C(=O)Nc2n[nH]c3ccc(-c4ccc(F)c(F)c4F)cc23)CC1` [compound 128, 1-Methyl-N-[5-(2,3,4-trifluorophenyl)-1H-indazol-3-yl]piperidine-4-carboxamide hydrochloride] gave a DC50 of 468 nM.
`C[C@H]1CC[C@@H](C(=O)Nc2n[nH]c3ccc(-c4c(Cl)cccc4Cl)cc23)CN1` [compound 177, (3R,6S)-N-[5-(2,6-Dichlorophenyl)-1H-indazol-3-yl]-6-methylpiperidine-3-carboxamide trifluoroacetate] gave a DC50 of 54 nM.
In turn, `Nc1ccc(Cl)c(-c2ccc3[nH]nc(NC(=O)[C@@H]4CCCNC4)c3c2)c1` [cpd 34, (3R)-N-[5-(5-Amino-2-chlorophenyl)-1H-indazol-3-yl]piperidine-3-carboxamide dihydrochloride] had a DC50 of 19 nM.
Next, `N#Cc1ccc(Cl)c(-c2ccc3[nH]nc(NC(=O)C4CCNCC4)c3c2)c1` [cpd 61, N-[5-(2-Chloro-5-cyanophenyl)-1H-indazol-3-yl]piperidine-4-carboxamide hydrochloride]: 139 nM.
Molecule `CN1CCC(C(=O)Nc2n[nH]c3ccc(-c4cc(C(N)=O)ccc4Cl)cc23)CC1` [cpd 117, N-[5-(5-Carbamoyl-2-chlorophenyl)-1H-indazol-3-yl]-1-methylpiperidine-4-carboxamide trifluoroacetate] yielded a DC50 of 153 nM.
In turn, `COC(=O)c1ccc(Cl)c(-c2ccc3[nH]nc(NC(=O)[C@@H]4CCNC4)c3c2)c1` [cpd 37, Methyl 4-chloro-3-(3-{[(3R)-pyrrolidin-3-ylcarbonyl]amino}-1H-indazol-5-yl)benzoate hydrochloride] showed a DC50 of 26 nM.
Next, `CC(C)N1CCC(C(=O)Nc2n[nH]c3ccc(-c4cc(C#N)ccc4Cl)cc23)CC1` [compound 143, N-[5-(2-Chloro-5-cyanophenyl)-1H-indazol-3-yl]-1-(propan-2-yl)piperidine-4-carboxamide hydrochloride]: 89 nM; `CN1CCC(C(=O)Nc2n[nH]c3ccc(-c4ccc(F)cc4F)cc23)CC1` [compound 124, N-[5-(2,4-Difluorophenyl)-1H-indazol-3-yl]-1-methylpiperidine-4-carboxamide hydrochloride]: 637 nM.
The molecule `CN1CCC(C(=O)Nc2n[nH]c3ccc(-c4ccc(N)cc4Cl)cc23)CC1` [cpd 107, N-[5-(4-Amino-2-chlorophenyl)-1H-indazol-3-yl]-1-methylpiperidine-4-carboxamide dihydrochloride] registered a DC50 of 200 nM.
`CN1CCC(C(=O)Nc2n[nH]c3ccc(-c4ccc(S(N)(=O)=O)cc4)cc23)CC1` [cpd 92, 1-Methyl-N-[5-(4-sulfamoylphenyl)-1H-indazol-3-yl]piperidine-4-carboxamide hydrochloride] displayed a DC50 of 799 nM.
In the case of `Cc1ccc(-c2ccc3[nH]nc(NC(=O)[C@@H]4CCCNC4)c3c2)c(C(F)(F)F)c1` [cpd 36, (3R)-N-{5-[4-Methyl-2-(trifluoromethyl)phenyl]-1H-indazol-3-yl}piperidine-3-carboxamide hydrochloride] it was 65 nM.
